This is an account of results in patent US7247634B2, “Rifamycin derivatives effective against drug-resistant microbes” (Cumbre Pharmaceuticals Inc., priority 2004, dated 2007).

Values after ≈ are worked out from the molar mass of the structure shown.

Format in all cases: cell-based
The test system of experiment [1] is Streptococcus pneumoniae ATCC6303. Nature of the experiment: MIC, microbroth dilution (NCCLS). As to conditions: rifS strain, THY Broth with 1 mg/mL catalase, 5% CO2, 37° C., read-out: Antimicrobial activity (MIC).
Experiment [2] relates to Staphylococcus epidermidis ATCC12228. In words: MIC, microbroth dilution (NCCLS). As to conditions: rifS strain, Cation-Adjusted Mueller-Hinton Broth, 37° C., read-out: Antimicrobial activity (MIC).
Experiment [3] concerns Haemophilus influenzae ATCC10211. In words: MIC, microbroth dilution (NCCLS). Conditions: rifS strain, BHI Broth with NAD and hematin, 37° C., read-out: Antimicrobial activity (MIC).
Experiment [4] deals with Streptococcus pyogenes ATCC19615. Nature of the experiment: MIC, microbroth dilution (NCCLS). Conditions: rifS strain, THY Broth, 37° C., read-out: Antimicrobial activity (MIC).
Experiment [5] relates to Enterococcus faecalis ATCC29212. Nature of the experiment: MIC, microbroth dilution (NCCLS). Conditions: rifS strain, BHI Broth, 37° C., read-out: Antimicrobial activity (MIC).
Experiment [6] deals with Staphylococcus aureus ATCC29213 rpoB^D417Y. In words: microbe, parasite or virus in culture. As to conditions: ATCC29213, read-out: Antimicrobial activity (MIC). The method in brief:
(§1)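 MICs by NCCLS broth microdilution, incubation at 37 °C, in cation-adjusted Mueller-Hinton broth. Strains: rifampin-resistant S. aureus ATCC 29213 with rpoB D417Y or H418Y, and quinolone-resistant EN1252a carrying gyrA S84L plus grlA S80F.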

Experiment [7] deals with Staphylococcus aureus ATCC29213 rpoB^H418Y. In words: microbe, parasite or virus in culture. As to conditions: ATCC29213, read-out: Antimicrobial activity (MIC). The method, boiled down:
as §1

Experiment [8] deals with Staphylococcus aureus EN1252a gyrA^S84L grlA^S80F. Nature of the experiment: microbe, parasite or virus in culture. Conditions: read-out: Antimicrobial activity (MIC). The method in brief:
as §1

Experiment [9] has as its system Escherichia coli ATCC25922. In words: MIC, microbroth dilution (NCCLS). Conditions: rifS strain, Cation-Adjusted Mueller-Hinton Broth, 37° C., read-out: Antimicrobial activity (MIC).
Experiment [10] has as its system Staphylococcus aureus ATCC29213. Nature of the experiment: MIC, microbroth dilution (NCCLS). As to conditions: rifS strain, Cation-Adjusted Mueller-Hinton Broth, 37° C., read-out: Antimicrobial activity (MIC).
Experiment [11] relates to Mycobacterium smegmatis ATCC700084. Nature of the experiment: MIC, microbroth dilution (NCCLS). As to conditions: Mycolicibacterium smegmatis, rifS strain, Middlebrook Broth plus ADC Enrichment, 37° C., read-out: Antimicrobial activity (MIC).

For the molecule `CO[C@H]1/C=C/O[C@@]2(C)Oc3c(C)c(O)c4c(c3C2=O)C(=O)C(N[C@H]2CCN(c3cc5c(cc3F)c(=O)c(C(=O)O)cn5C3CC3)C2)=C(NC(=O)/C(C)=C\C=C\[C@H](C)[C@H](O)[C@@H](C)[C@@H](O)[C@@H](C)[C@H](OC(C)=O)[C@@H]1C)C4=O` [Example 9, (S)-3-[1-(3-Carboxy-1-cyclopropyl-6-fluoro-4-oxo-1,4-dihydroquinolin-7-yl)-pyrrolidin-3-ylamino]rifamycin S], the MIC in experiment [1] was in the range of 0.008 to 0.125 µg/mL (≈ 0.0078 to 0.122 µM); in experiment [2], 0.008 to 0.063 µg/mL (≈ 0.0078 to 0.0615 µM); in [3], 0.125 to 2 µg/mL (≈ 0.122 to 1.95 µM); in experiment [4], 0.008 to 0.063 µg/mL (≈ 0.0078 to 0.0615 µM); in experiment [5] it was 2 to 32 µg/mL (≈ 1.95 to 31.2 µM); in experiment [6] it was 0.06 to 32 µg/mL (≈ 0.0585 to 31.2 µM). Further, the MIC in [7] was 0.06 to 16 µg/mL (≈ 0.0585 to 15.6 µM); in [8], 0.004 to 0.5 µg/mL (≈ 0.0039 to 0.488 µM); in experiment [9] it was 0.125 to 8 µg/mL (≈ 0.122 to 7.8 µM); in experiment [10], 0.004 to 0.5 µg/mL (≈ 0.0039 to 0.488 µM); in experiment [11], 0.5 to 64 µg/mL.
For `COc1c(N2CCN(C3=C4NC(=O)/C(C)=C\C=C\[C@H](C)[C@H](O)[C@@H](C)[C@@H](O)[C@@H](C)[C@H](OC(C)=O)[C@H](C)[C@@H](OC)/C=C/O[C@@]5(C)Oc6c(C)c(O)c(c(c6C5=O)C3=O)C4=O)C(C)C2)c(F)cc2c(=O)c(C(=O)O)cn(C3CC3)c12` (stereo partly drawn) [Example 10, (R,S)-3-[4-(3-Carboxy-1-cyclopropyl-6-fluoro-8-methoxy-4-oxo-1,4-dihydroquinolin-7-yl)-2-methylpiperazin-1-yl]rifamycin S], the MIC in experiment [1] lay within 0.008 to 0.125 µg/mL (≈ 0.00748 to 0.117 µM); in experiment [2] it was 0.008 to 0.063 µg/mL (≈ 0.00748 to 0.0589 µM); in [3], 0.125 to 2 µg/mL (≈ 0.117 to 1.87 µM); in experiment [4], 0.008 to 0.063 µg/mL (≈ 0.00748 to 0.0589 µM); in experiment [5] it was 2 to 32 µg/mL (≈ 1.87 to 29.9 µM); in experiment [6] it was 0.06 to 32 µg/mL (≈ 0.0561 to 29.9 µM). The MIC lay in the range of 0.06 to 16 µg/mL (≈ 0.0561 to 15 µM) in [7]; 0.004 to 0.5 µg/mL (≈ 0.00374 to 0.468 µM) in experiment [8]; 0.125 to 8 µg/mL (≈ 0.117 to 7.48 µM) in [9]; 0.004 to 0.5 µg/mL (≈ 0.00374 to 0.468 µM) in [10]; 0.5 to 64 µg/mL in experiment [11].
`CO[C@H]1/C=C/O[C@@]2(C)Oc3c(C)c(O)c4c(O)c(c(CN5CCN(c6cc7c(cc6F)c(=O)c(C(=O)O)cn7C6CC6)CC5)c(O)c4c3C2=O)NC(=O)/C(C)=C\C=C\[C@H](C)[C@H](O)[C@@H](C)[C@@H](O)[C@@H](C)[C@H](OC(C)=O)[C@@H]1C` [Example 12, 3-[4-[3-Carboxy-1-cyclopropyl-6-fluoro-4-oxo-(1,4-dihydroquinolin-7-yl)]-piperazin-1-ylmethyl]rifamycin SV]: the MIC in experiment [1] was 0.008 to 0.125 µg/mL (≈ 0.00768 to 0.12 µM); in experiment [2], 0.008 to 0.063 µg/mL (≈ 0.00768 to 0.0605 µM); in experiment [3] it was 0.125 to 2 µg/mL (≈ 0.12 to 1.92 µM); in experiment [4], 0.008 to 0.063 µg/mL (≈ 0.00768 to 0.0605 µM); in [5], 2 to 32 µg/mL (≈ 1.92 to 30.7 µM); in [6] it was 0.06 to 32 µg/mL (≈ 0.0576 to 30.7 µM). Further, the MIC in [7] is 0.06 to 16 µg/mL (≈ 0.0576 to 15.4 µM); in experiment [8], 0.004 to 0.5 µg/mL (≈ 0.00384 to 0.48 µM); in [9] it was 0.125 to 8 µg/mL (≈ 0.12 to 7.68 µM); in [10], 0.004 to 0.5 µg/mL (≈ 0.00384 to 0.48 µM); in experiment [11], 0.5 to 64 µg/mL.
For `CO[C@H]1/C=C/O[C@@]2(C)Oc3c(C)c(O)c4c(O)c(c(CN5CCN(c6nc7c(cc6F)c(=O)c(C(=O)O)cn7-c6ccc(F)cc6F)CC5)c(O)c4c3C2=O)NC(=O)/C(C)=C\C=C\[C@H](C)[C@H](O)[C@@H](C)[C@@H](O)[C@@H](C)[C@H](OC(C)=O)[C@@H]1C` [Example 14, 3-[4-[3-carboxy-1-(2,4-Difluoro-phenyl)-6-fluoro-4-oxo-1,4-dihydro-[1,8]naphthyridin-7-yl]piperazin-1-ylmethyl]rifamycin SV], the MIC is 0.008 to 0.125 µg/mL (≈ 0.00718 to 0.112 µM) in experiment [1]; 0.008 to 0.063 µg/mL (≈ 0.00718 to 0.0565 µM) in experiment [2]; 0.125 to 2 µg/mL (≈ 0.112 to 1.8 µM) in experiment [3]; 0.008 to 0.063 µg/mL (≈ 0.00718 to 0.0565 µM) in [4]; 2 to 32 µg/mL (≈ 1.8 to 28.7 µM) in experiment [5]; 0.06 to 32 µg/mL (≈ 0.0539 to 28.7 µM) in experiment [6]. In addition, the MIC in experiment [7] was in the range of 0.06 to 16 µg/mL (≈ 0.0539 to 14.4 µM); in [8], 0.004 to 0.5 µg/mL (≈ 0.00359 to 0.449 µM); in experiment [9], 0.125 to 8 µg/mL (≈ 0.112 to 7.18 µM); in [10] it was 0.004 to 0.5 µg/mL (≈ 0.00359 to 0.449 µM); in [11], 0.5 to 64 µg/mL.
